The values that follow come from BindingDB's records for doi:10.1021/jm200691d (University of Bologna, 2011).

Test [1] addresses T1, Acetylcholinesterase (Homo sapiens, UniProt P22303). The experiment in a line: Inhibition of human recombinant AChE using acetylthiocholine iodide as substrate after 20 mins preincubation by Ellman method.
In test [2] the target is T1, Acetylcholinesterase. The experiment in a line: Inhibition of human recombinant AChE-induced amyloid beta (1-40) aggregation assessed as fibril formation after 24 hrs by thioflavin T-based fluorometric assay.

T1 sequence (P22303 whole entry): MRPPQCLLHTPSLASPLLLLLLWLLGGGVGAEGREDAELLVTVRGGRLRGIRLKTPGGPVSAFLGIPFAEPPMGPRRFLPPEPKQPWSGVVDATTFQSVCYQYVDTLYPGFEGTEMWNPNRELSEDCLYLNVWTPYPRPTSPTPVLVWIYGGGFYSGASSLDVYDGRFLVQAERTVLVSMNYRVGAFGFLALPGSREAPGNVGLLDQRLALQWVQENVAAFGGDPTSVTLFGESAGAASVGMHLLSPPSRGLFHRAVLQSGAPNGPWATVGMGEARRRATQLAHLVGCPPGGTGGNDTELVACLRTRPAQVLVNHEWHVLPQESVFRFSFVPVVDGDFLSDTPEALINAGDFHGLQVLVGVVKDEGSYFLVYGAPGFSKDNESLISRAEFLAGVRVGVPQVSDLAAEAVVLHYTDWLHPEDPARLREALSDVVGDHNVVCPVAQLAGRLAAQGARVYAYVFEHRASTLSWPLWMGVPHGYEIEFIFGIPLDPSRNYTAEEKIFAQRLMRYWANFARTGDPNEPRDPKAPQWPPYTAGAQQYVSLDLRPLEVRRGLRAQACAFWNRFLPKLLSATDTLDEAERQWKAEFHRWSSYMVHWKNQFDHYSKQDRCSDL

In general, IC50 refers to the point on the concentration scale where inhibition reaches its midpoint. For `CCN(CCCCCC=Nc1cc(O)c2ccccc2c1O)Cc1ccccc1OC`, the IC50 on Acetylcholinesterase [1] and at Acetylcholinesterase [2] was 45 µM in each case.
